Legend:
[1] = solubility in aqueous media; assay type: physicochemical
Description: Therefore it is not straightforward or easy to formulate it into pharmaceutical compositions, e.g. for oral administration.

[2] = stability in the solid state (heat, heat/humidity, light); assay type: physicochemical; settings: after one week at 80° C. in a close container, or at 80° C./75% r.h. in open container, or upon exposure to light (1200 kLux, 300-800 nm)
Description: Criteria for selecting the salts of the invention include i) dissolution in water, with measurement of degradation products, and decoloration, ii) stability against heat in solid state, iii) exposure to light (e.g. Xenon light), iv) corosivity to steel.

Structure (SMILES) | solubility in aqueous media [1] | stability in the solid state [2]
CN1CCN(c2nc(C3=C(c4c[nH]c5ccccc45)C(=O)NC3=O)c3ccccc3n2)CC1 [free base, 3-(1.H.-indol-3-yl)-4-[2-(4-methyl-piperazin-1-yl)-quinazolin-4-yl]-pyrrole-2,5-dione] | relatively low solubility | 
CN1CCN(c2nc(C3=C(c4c[nH]c5ccccc45)C(=O)NC3=O)c3ccccc3n2)CC1.CS(=O)(=O)O [mesylate salt, Mesylate Salt of 3-(1.H.-indol-3-yl)-4-[2-(4-methyl-piperazin-1-yl)-quinazolin-4-yl]-pyrrole-2,5-dione] |  | very good stability
CN1CCN(c2nc(C3=C(c4c[nH]c5ccccc45)C(=O)NC3=O)c3ccccc3n2)CC1.O=C(O)/C=C\C(=O)O [maleate, Maleate Salt of 3-(1.H.-indol-3-yl)-4-[2-(4-methyl-piperazin-1-yl)-quinazolin-4-yl]-pyrrole-2,5-dione] |  | very good stability
